Assay results from patent US20030186434A1, “Method of forming vertebrate pancreas in vitro” (priority 2002, published 2003).

What was measured:
[1] = system: blastopore upper lip of early gastrula of a Xenopus; assay: Tissue differentiation of blastopore upper lip cultured continuously in retinoic acid solution for 10 days; assay type: cell-based
[2] = system: blastopore upper lip of early gastrula of a Xenopus; assay: Timing of retinoic acid treatment: preculture of blastopore upper lip before one hour treatment; assay type: cell-based; details: 10^−4 M, treated 1 hour, cultured 10 days
Protocol: Regarding the other tissues, an intestinal epithelium was formed aside from notochord and mesenchyme in those precultured for 0 and 5 hours. However, as to those treated with retinoic acid after preculture for more than 15 hours, the formation of intestinal epithelium was suppressed and the differentiation rate of epithelium, coelomic epithelium and pharyngeal epithelium increased.

[3] = 10^−9 M, continuous 10 days, 11 specimens
[4] = preculture 0 hours, 34 specimens
[5] = preculture 5 hours, 36 specimens
[6] = preculture 15 hours, 40 specimens
[7] = preculture 25 hours, 34 specimens

CC1=C(/C=C/C(C)=C/C=C/C(C)=C/C(=O)O)C(C)(C)CCC1 [Retinoic acid, retinoic acid]
Epidermis differentiated, specimens (%) [1, 3]: 11 (100) | Eye or its fragments differentiated, specimens (%) [1, 3]: 0 (0) | Gastric gland differentiated, specimens (%) [1, 3]: 0 (0) | Hemocyte differentiated, specimens (%) [1, 3]: 0 (0) | Intestinal epithelium differentiated, specimens (%) [1, 3]: 0 (0) | Mesenchyme differentiated, specimens (%) [1, 3]: 10 (91) | Muscle differentiated, specimens (%) [1, 3]: 9 (82) | Neural tissue differentiated, specimens (%) [1, 3]: 9 (82) | Notochord differentiated, specimens (%) [1, 3]: 11 (100) | Pancreas differentiated, specimens (%) [1, 3]: 0 (0) | Pharyngeal epithelium differentiated, specimens (%) [1, 3]: 7 (64) | Pronephros differentiated, specimens (%) [1, 3]: 0 (0) | Yolk-rich cell differentiated, specimens (%) [1, 3]: 8 (73) | formation rate of pancreas ([1]; continuous treatment 10 days, any concentration tested): about 10% | Atypical epidermis differentiated, specimens (%) [2, 4]: 0 (0) | Cartilage differentiated, specimens (%) [2, 4]: 0 (0) | Cement gland differentiated, specimens (%) [2, 4]: 0 (0) | Coelomic epithelium differentiated, specimens (%) [2, 4]: 0 (0) | Ear vesicle differentiated, specimens (%) [2, 4]: 0 (0) | Epidermis differentiated, specimens (%) [2, 4]: 11 (32) | Eye or its fragments differentiated, specimens (%) [2, 4]: 0 (0) | Gastric gland differentiated, specimens (%) [2, 4]: 0 (0) | Hemocyte differentiated, specimens (%) [2, 4]: 0 (0) | Intestinal epithelium differentiated, specimens (%) [2, 4]: 34 (100) | Mesenchyme differentiated, specimens (%) [2, 4]: 23 (68) | Muscle differentiated, specimens (%) [2, 4]: 1 (3) | Neural tissue differentiated, specimens (%) [2, 4]: 0 (0) | Notochord differentiated, specimens (%) [2, 4]: 33 (97) | Pancreas differentiated, specimens (%) [2, 4]: 24 (71) | Pharyngeal epithelium differentiated, specimens (%) [2, 4]: 25 (74) | Pronephros differentiated, specimens (%) [2, 4]: 0 (0) | Yolk-rich cell differentiated, specimens (%) [2, 4]: 32 (94) | Atypical epidermis differentiated, specimens (%) [2, 5]: 0 (0) | Cartilage differentiated, specimens (%) [2, 5]: 0 (0) | Cement gland differentiated, specimens (%) [2, 5]: 0 (0) | Coelomic epithelium differentiated, specimens (%) [2, 5]: 0 (0) | Ear vesicle differentiated, specimens (%) [2, 5]: 0 (0) | Epidermis differentiated, specimens (%) [2, 5]: 5 (14) | Eye or its fragments differentiated, specimens (%) [2, 5]: 0 (0) | Gastric gland differentiated, specimens (%) [2, 5]: 0 (0) | Hemocyte differentiated, specimens (%) [2, 5]: 0 (0) | Intestinal epithelium differentiated, specimens (%) [2, 5]: 33 (92) | Mesenchyme differentiated, specimens (%) [2, 5]: 30 (83) | Muscle differentiated, specimens (%) [2, 5]: 0 (0) | Neural tissue differentiated, specimens (%) [2, 5]: 0 (0) | Notochord differentiated, specimens (%) [2, 5]: 36 (100) | Pancreas differentiated, specimens (%) [2, 5]: 19 (53) | Pharyngeal epithelium differentiated, specimens (%) [2, 5]: 27 (75) | Pronephros differentiated, specimens (%) [2, 5]: 0 (0) | Yolk-rich cell differentiated, specimens (%) [2, 5]: 30 (83) | Atypical epidermis differentiated, specimens (%) [2, 6]: 0 (0) | Cartilage differentiated, specimens (%) [2, 6]: 0 (0) | Cement gland differentiated, specimens (%) [2, 6]: 0 (0) | Ear vesicle differentiated, specimens (%) [2, 6]: 0 (0) | Epidermis differentiated, specimens (%) [2, 6]: 13 (33) | Eye or its fragments differentiated, specimens (%) [2, 6]: 0 (0) | Hemocyte differentiated, specimens (%) [2, 6]: 0 (0) | Mesenchyme differentiated, specimens (%) [2, 6]: 40 (95) | Muscle differentiated, specimens (%) [2, 6]: 0 (0) | Neural tissue differentiated, specimens (%) [2, 6]: 0 (0) | Pronephros differentiated, specimens (%) [2, 6]: 0 (0) | Atypical epidermis differentiated, specimens (%) [2, 7]: 0 (0) | Cartilage differentiated, specimens (%) [2, 7]: 0 (0) | Cement gland differentiated, specimens (%) [2, 7]: 0 (0) | Coelomic epithelium differentiated, specimens (%) [2, 7]: 16 (47) | Ear vesicle differentiated, specimens (%) [2, 7]: 0 (0) | Epidermis differentiated, specimens (%) [2, 7]: 28 (82) | Eye or its fragments differentiated, specimens (%) [2, 7]: 0 (0) | Gastric gland differentiated, specimens (%) [2, 7]: 0 (0) | Hemocyte differentiated, specimens (%) [2, 7]: 0 (0) | Intestinal epithelium differentiated, specimens (%) [2, 7]: 5 (15) | Mesenchyme differentiated, specimens (%) [2, 7]: 34 (100) | Muscle differentiated, specimens (%) [2, 7]: 1 (3) | Neural tissue differentiated, specimens (%) [2, 7]: 0 (0) | Notochord differentiated, specimens (%) [2, 7]: 33 (97) | Pancreas differentiated, specimens (%) [2, 7]: 0 (0) | Pharyngeal epithelium differentiated, specimens (%) [2, 7]: 34 (100) | Pronephros differentiated, specimens (%) [2, 7]: 0 (0) | Yolk-rich cell differentiated, specimens (%) [2, 7]: 20 (59)
